Series [1] can be described thus: Storage stability of maxacalcitol hydrate under an inert gas atmosphere. It counts as physicochemical. The note with it: under an inert gas atmosphere at 25° C. The text has this:
In a preferred embodiment, the maxacalcitol hydrate is stored in an amber vial.

The conditions of series [2]: cited from earlier work.

Like-named read-outs stand apart in the source and are kept apart here.

Regarding `C=C1/C(=C\C=C2/CCC[C@]3(C)[C@@H]([C@H](C)OCCC(C)(C)O)CC[C@@H]23)C[C@@H](O)C[C@@H]1O` [maxacalcitol hydrate], the “stability to storage: no degradation for (time)” value in series [1] is given as “at least 32 days”.
For `C=C1/C(=C\C=C2/CCC[C@]3(C)[C@@H]([C@H](C)OCCC(C)(C)O)CC[C@@H]23)C[C@@H](O)C[C@@H]1O` [maxacalcitol, (+)-(5Z,7E,20S)-20-(3-Hydroxy-3-methylbutoxy)-9,10-secopregna-5,7,10(19)-triene-1α,3β-diol], in series [2] (amber vial under inert gas environment at 25° C.), the “stability: decomposed after storage (time)” value is 4 weeks. Further, the “stability: stable for (storage time)” value is reported as 6 months in series [2] (amber vial under inert gas environment at −20° C.) and 36 months in series [2] (amber vial under inert gas environment at −80° C.). In addition, in series [2] (at 25° C., according to the JP interview form), the decomposition on storage result is “considerable degree of decomposition”.

These data come from patent US20140051875A1, “CRYSTALLINE FORM OF MAXACALCITOL” (FORMOSA LABORATORIES INC., priority 2012, published 2014).
